Measured values reported in the NIST ThermoML archive (doi:10.1021/acs.jced.5b00893).
± gives the expanded uncertainty stated by the source.

Details: 293.15 K; 101.33 kPa; Liquid; Vibrating tube method

mass density [kg/m3]	Compound
1058 ± 2	CN1CCN(C)C1=O [1,3-dimethyl-2-imidazolidinone]
1065 ± 2	CN1CCCN(C)C1=O [1,3-dimethyl-3,4,5,6-tetrahydro-2(1H)-pyrimidinone]
982 ± 2	CCCCOC(=O)C(C)O (centres undefined) [butyl 2-hydroxypropanoate]

Compound	mass density [kg/m3]
O=C1CCCO1 [γ-butyrolactone]	1129 ± 2
